Assay results: patent publication US20110118337A1, “Method of Using Compositions Comprising MIR-192 and/or MIR-215 for the Treatment of Cancer” (Merck Sharp & Dohme Corp., priority 2008, published 2011)
Values joined by “and” are separate entries in the source; they are usually repeats but may differ in a detail not shown here. Identical values can stand only once.

What was measured:
HCT116DICER^ex5 cells [1] = test: BrdU pulse-labeling, flow cytometry (S-phase); type: cell-based, human; conditions: BrdU pulse-labeled; 10 nM duplex
Protocol: (§1) At 48 hours post transfection, cells were left untreated, treated with nocodazole (100 ng/mL, Sigma-Aldrich), or treated with aphidicolin (2 μg/mL, Sigma-Aldrich) for an additional 18 hours before harvesting. The cells were then trypsinized, collected, fixed and stained with a propidium iodide solution. BrdU-labeling was performed according to the manufacturer's instructions (BD-Pharmigen). For phospho-histone H3 analysis, cells were fixed and permeabilized with IPF buffer (100 mM PIPES pH 6.8, 10 mM EDTA, 1 mM MgCl2, 0.2% Triton X-100, 4% formaldehyde) and stained with propidium iodide and anti-phospho-histone H3 antibody conjugated to Alexa-488 (Cell Signaling Technology). The cells were analyzed using a FACSCalibur flow cytometer (Beacton Dickinson) and FlowJo software (Tree Star, Inc.).
The transfected cells were also pulse-labeled with the thymidine analog 5-bromo-deoxyuridine (BrdU) to assay for defects in DNA synthesis. Using flow cytometry and it was determined that the percentage of cells in S-phase in the mock transfected population was 37.3%, whereas the percentage of cells in S-phase in the miR-192 transfected population was 11.9%.

[2] = test system: 18 candidate downstream targets of miR-192/miR-215 in U-2-OS cells; test: Transcript abundance of target genes by quantitative PCR (Taqman); type: cell-based; conditions: 10 nM, 10 hours following transfection, relative to luciferase siRNA or miR-192 seed region mutant
Protocol: To further confirm that the candidate genes shown in TABLE 7 and TABLE 8 are direct downstream targets of miR-192/miR-215, miR-192 siRNA (10 nM) synthetic duplexes, miR-192 mutant (10 nM) or 10 nM siRNA against luciferase were transfected into the cell line U-2-OS, an osteosarcoma cell line that has wild-type DICER function and a relatively low endogenous level of miR-192/miR-215.
RNA was isolated at 10 hours post-transfection and transcript abundance of the target genes shown in TABLE 7 and TABLE 8 was measured by quantitative PCR. Transcript abundance was measured by Taqman gene expression assay (Applied Biosystems) using hGUS as an internal control. Levels of transcripts were quantified using an ABI Prism 7900HT sequence detection system.

[3] = test system: miR-192 target transcripts; test: Down-regulation of miR-192 target transcripts; type: cell-based
HCT116DICER^ex5 cells [4] = test: Cell cycle FACS screen of pools of three siRNAs per gene (G1 after nocodazole, G2/M after aphidicolin); type: cell-based, human; conditions: pools of 3 siRNAs/gene at 100 nM final, FACS 66 hours post-transfection, average of two experiments
Source text: To identify targets whose modulation influences the cell cycle arrest phenotype observed with miR-192 expression, the 62 candidate genes identified as described in Example 2 and shown in TABLE 3 were silenced individually by transfecting a pool of 3 gene-specific siRNA duplexes per gene (each directed to a different region of the gene) into HCT116DICER^ex5 cells. The siRNA duplex sequences (3 duplexes per gene) used to target each of the 62 genes are shown below in TABLE 5. The siRNA duplex oligonucleotides were obtained from Sigma-Genesys, as described in Linsley, P. S. et al., Mol Cell Biol 27:2240-2252 (2007).
HCT116DICER^ex5 cells were transiently transfected with pools of three different siRNA duplexes per gene at a 100 nM final concentration using Lipofectamine RNAiMax (Invitrogen), according to the manufacturer's instructions. At 48 hours post transfection, cells were left untreated, treated with nocodazole (100 ng/mL, Sigma-Aldrich), or treated with aphidicolin (2 μg/mL, Sigma-Aldrich) for an additional 18 hours before harvesting. The cells transfected with the siRNA pools were then screened by FACS analysis as described in Example 3 for the percentage of cells arrested in G1 or G2/M as compared to the negative siRNA luciferase control.
The siRNA pools tested in this screen were ranked according to the percentage of cells arrested in G1 or G2/M following transfection, as compared with a negative control siRNA targeting luciferase. To avoid being misled by possible RNAi off-target effects, the siRNA pools were deconvoluted to identify genes for which at least 2 different siRNA duplexes from the pool caused the cell cycle arrest phenotype (data not shown).
TABLE 6 summarizes the data obtained 66 hours post-transfection by FACS analysis showing the cell cycle distribution of the HCT116DICER^ex5 cells transfected with siRNA pools of 3 siRNAs/gene. Each pool was analyzed in two separate experiments, and the average percentage of the cells trapped in G1 (following nocodazole treatment), or G2/M (following aphidicolin treatment) are shown in TABLE 6.

HCT116DICER^ex5 cells [5] = test: Transfection of siRNA pools (G1 or G2 gene set) at suboptimal levels, cell cycle FACS analysis (nocodazole or aphidicolin); type: cell-based, human; conditions: 10 nM; for % G1 / % G2: 66 hours post transfection
Protocol: […] At 48 hours post-transfection into HCT116DICER^ex5 cells, the cells were treated with nocodazole for an additional 18 hours prior to FACS analysis.
[…] At 48 hours post-transfection into HCT116DICER^ex5 cells, the cells were treated with aphidicolin for an additional 18 hours prior to FACS analysis.

HCT116DICER^ex5 cells [6] = test: Cell cycle distribution by propidium iodide FACS after miR-192 duplex transfection (untreated, nocodazole or aphidicolin); type: cell-based, human; conditions: for % Cells with 2N (G1/S) / % Cells with 4N (G2/M): 10 nM duplex, 66 hours after transfection
Protocol: as §1

HCT116DICER^ex5 cells [7] = test: Cell cycle FACS analysis of siRNAs against top G1 and G2 arrest genes (nocodazole or aphidicolin); type: cell-based, human; conditions: 10 mM miR-192
Protocol: Of the 62 genes shown above in TABLE 6, the 10 genes whose targeting by siRNA caused the largest percentage of cells to arrest in G1, listed below in TABLE 7, were transfected into HCT116DICER^ex5 cells in another experiment as follows.
HCT116DICER^ex5 cells were transfected with […] miR-192 or 100 nM siRNA against luciferase, or 100 nM siRNA (one siRNA duplex of the pool of three) against the putative miR-192 target of interest, as indicated in TABLES 7 and 8. At 48 hours post transfection, cells were treated with nocodazole or aphicicolin for an additional 18 hours prior to FACS analysis. The results for the nocodazole treated cells (% of cells in G1) are provided in TABLE 7, and graphically illustrated in FIG. 3A. The results for the aphidicolin treated cells (% of cells in G2) are provided in TABLE 8 and graphically illustrated in FIG. 3B.

[8] = compared with mock or mutant miR-192-transfected cells

miR-192: Synthetic duplex mimetic of miR-192, guide CUGACCUAUGAAUUGACAGCC (SEQ ID NO:1), passenger SEQ ID NO:7 (sense CUGUCAAUUCAUCGGUCUGAU; listed as RNA, chemistry not given here; listed as Homo sapiens)
percentage of cells in S-phase (HCT116DICER^ex5 cells [1]): 11.9%
candidate gene transcript levels [2]: decrease
down-regulation of target transcripts [3]: 30-40%
% G2 (Avg), Aphidicholin+ (HCT116DICER^ex5 cells [4]; aphidicolin 2 μg/mL 18 h): 54.9%
% G1 (Avg), Nocodazole+ (HCT116DICER^ex5 cells [4]; nocodazole 100 ng/mL 18 h): 43.6%
% G1 (HCT116DICER^ex5 cells [5]; after aphidicolin treatment): 50.4%
% G2 (HCT116DICER^ex5 cells [5]; after aphidicolin treatment): 44.7%
G2 arrest phenotype (HCT116DICER^ex5 cells [5]; aphidicolin): induced a G2-arrest phenotype
G1 arrest phenotype (HCT116DICER^ex5 cells [5]; nocodazole): induced a G1-arrest phenotype
% G1 (HCT116DICER^ex5 cells [5]; nocodazole): 43.9%
% G2 (HCT116DICER^ex5 cells [5]; nocodazole): 53.6%
% Cells with 2N (G1/S) (HCT116DICER^ex5 cells [6]; aphidicolin 2 μg/mL 18 hours): 46.3%
% Cells with 4N (G2/M) (HCT116DICER^ex5 cells [6]; aphidicolin 2 μg/mL 18 hours): 47.4%
G2/M phase population (HCT116DICER^ex5 cells [6]; [8]): increase
S phase population (HCT116DICER^ex5 cells [6]; [8]): significant decrease
% Cells with 2N (G1/S) (HCT116DICER^ex5 cells [6]; nocodazole 100 ng/mL 18 hours): 36% and 36.3%
% Cells with 4N (G2/M) (HCT116DICER^ex5 cells [6]; nocodazole 100 ng/mL 18 hours): 56.5%
accumulation in the G2/M phase (HCT116DICER^ex5 cells [6]; treated with aphidicolin): a significant fraction
% Cells with 2N (G1/S) (HCT116DICER^ex5 cells [6]; untreated): 48.6%
% Cells with 4N (G2/M) (HCT116DICER^ex5 cells [6]; untreated): 44.6%
% Cells in G2 (HCT116DICER^ex5 cells [7]; aphidicolin 18 hours from 48 hours post transfection): 42.3%
% Cells in G1 (HCT116DICER^ex5 cells [7]; nocodazole 18 hours from 48 hours post transfection): 37.9%
